Laboratory results taken from patent US12180304B2 (Zhejiang University, priority 2020, dated 2024).

Target: T1, intact recombinant antibody against clothianidin and dinotefuran (Mus musculus, UniProt P01837+P01868)
T1 construct: The heavy and light chain variable region genes were ligated to linearized expression vectors pCDNA3.4-Mouse-IgG1 and pCDNA3.4-Mouse-Kappa; mouse IgG1 heavy chain constant region (fusion partner); mouse kappa light chain constant region (fusion partner); made in house; host or cells: HEK293F cells, double-plasmid transfection, Protein A purification
Assay: heterologous indirect competitive ELISA (thiacloprid-OVA coating antigen)
Format: binding
Method: In the early stage of preparation of parental ascitic monoclonal antibodies, a difference in sensitivity was compared between the homologous indirect competitive ELISA (coating antigen was clothianidin-OVA) and the heterologous indirect ELISA (coating antigens were thiacloprid-OVA and imidaclothiz-OVA).
In the present disclosure, the specificity of the antibody was evaluated by detecting the cross-reactivity with eight common neonicotinoid insecticides.

SMILES	linear range (IC20 to IC80)
CN/C(=N\[N+](=O)[O-])NCc1cnc(Cl)s1 [clothianidin]	1.08 to 15.06 ng/mL
CN/C(=N/CC1CCOC1)N[N+](=O)[O-] (centres unmarked) [dinotefuran]	3.78 to 30.03 ng/mL
